Measurements taken from the supplement of paper PMC10307832.

Experiments:
Assay in all cases: relative viability (nuclei count vs DMSO), 5 days (fraction); higher = more cells survive
Pictilisib + AZD7762 = compound: CS(=O)(=O)N1CCN(Cc2cc3nc(-c4cccc5[nH]ncc45)nc(N4CCOCC4)c3s2)CC1 [Pictilisib] + NC(=O)Nc1cc(-c2cccc(F)c2)sc1C(=O)N[C@H]1CCCNC1 [AZD7762] (partner 0.2 µM)
Procedure, shortened: (§1)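 Relative viability divides the nuclei count in treated wells by that in vehicle wells. Lung cancer cell lines were seeded in 1536-well plates, dosed by pin tool the next day, and fixed and stained after 5 days in one step with final 0.05% Triton X-100, 1% formaldehyde and 1 ug/ml Hoechst. Dosing was a single drug or a fixed anchor-drug dose plus five library-drug doses (not always all listed) in √10 steps, and values are medians of duplicate plates imaged at 4×.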

Pictilisib + Vorinostat = compound: CS(=O)(=O)N1CCN(Cc2cc3nc(-c4cccc5[nH]ncc45)nc(N4CCOCC4)c3s2)CC1 [Pictilisib] + O=C(CCCCCCC(=O)Nc1ccccc1)NO [Vorinostat] (partner 1 µM)
Procedure, shortened: as §1

MK-2206 + Crizotinib = compound: NC1(c2ccc(-c3nc4ccn5c(=O)[nH]nc5c4cc3-c3ccccc3)cc2)CCC1 [MK-2206] + C[C@@H](Oc1cc(-c2cnn(C3CCNCC3)c2)cnc1N)c1c(Cl)ccc(F)c1Cl [Crizotinib] (partner 1 µM)
Procedure, shortened: as §1

Pictilisib + Alpelisib = compound: CS(=O)(=O)N1CCN(Cc2cc3nc(-c4cccc5[nH]ncc45)nc(N4CCOCC4)c3s2)CC1 [Pictilisib] + Cc1nc(NC(=O)N2CCC[C@H]2C(N)=O)sc1-c1ccnc(C(C)(C)C(F)(F)F)c1 [Alpelisib] (partner 2 µM)
Procedure, shortened: as §1

MK-2206 + Tozasertib = compound: NC1(c2ccc(-c3nc4ccn5c(=O)[nH]nc5c4cc3-c3ccccc3)cc2)CCC1 [MK-2206] + Cc1cc(Nc2cc(N3CCN(C)CC3)nc(Sc3ccc(NC(=O)C4CC4)cc3)n2)n[nH]1 [Tozasertib] (partner 0.1 µM)
Procedure, shortened: as §1

Row | Cell Line | relative viability (Pictilisib + AZD7762; first compound 0.02 µM) | relative viability (Pictilisib + AZD7762; first compound 0.06325 µM) | relative viability (Pictilisib + AZD7762; first compound 0.6325 µM) | relative viability (Pictilisib + AZD7762; first compound 2 µM) | relative viability (Pictilisib + Vorinostat; first compound 0.02 µM) | relative viability (Pictilisib + Vorinostat; first compound 0.06325 µM) | relative viability (Pictilisib + Vorinostat; first compound 0.6325 µM) | relative viability (Pictilisib + Vorinostat; first compound 2 µM) | relative viability (MK-2206 + Crizotinib; first compound 0.01 µM) | relative viability (MK-2206 + Crizotinib; first compound 0.03162 µM) | relative viability (MK-2206 + Crizotinib; first compound 0.3162 µM) | relative viability (MK-2206 + Crizotinib; first compound 1 µM) | relative viability (Pictilisib + Alpelisib; first compound 0.02 µM) | relative viability (Pictilisib + Alpelisib; first compound 0.06325 µM) | relative viability (Pictilisib + Alpelisib; first compound 0.6325 µM) | relative viability (Pictilisib + Alpelisib; first compound 2 µM) | relative viability (MK-2206 + Tozasertib; first compound 0.01 µM) | relative viability (MK-2206 + Tozasertib; first compound 0.03162 µM) | relative viability (MK-2206 + Tozasertib; first compound 0.3162 µM) | relative viability (MK-2206 + Tozasertib; first compound 1 µM)
1 | NCI-H596 | 1.01 | 1.14 | 0.564 | 0.44 | 0.545 | 0.618 | 0.371 | 0.709 | 0.978 | 1 | 0.898 | 0.736 | 0.476 | 0.481 | 0.523 | 0.36 | 0.912 | 1.01 | 0.829 | 0.765
2 | NCI-H647 | 0.474 | 0.577 | 0.283 | 0.201 | 0.532 | 0.795 | 0.515 | 0.276 | 1.03 | 1.06 | 1.04 | 0.897 | 1.09 | 1.26 | 0.894 | 0.467 | 0.316 | 0.377 | 0.289 | 0.233
3 | NCI-H650 | 0.806 | 0.95 | 0.998 | 0.655 | 0.533 | 0.427 | 0.378 | 0.164 | 0.725 | 0.72 | 0.563 | 0.805 | 1.05 | 1.15 | 1 | 0.888 | 0.703 | 0.76 | 0.751 | 0.772
4 | NCI-H727 | 0.636 | 0.545 | 0.607 | 0.31 | 1.04 | 1.29 | 1.11 | 0.867 | 0.809 | 0.903 | 0.666 | 0.568 | 0.715 | 0.55 | 0.519 | 0.376 | 0.578 | 0.659 | 0.559 | 0.626
5 | NCI-H838 | 0.906 | 0.747 | 0.928 | 0.809 | 0.731 | 0.632 | 0.648 | 0.53 | 0.857 | 0.812 | 0.834 | 0.765 | 1.04 | 0.968 | 1.02 | 0.467 | 0.286 | 0.259 | 0.26 | 0.253
6 | NCI-H1355 | 0.678 | 0.689 | 0.546 | 0.362 | 0.62 | 0.624 | 0.589 | 0.257 | 1.07 | 1.03 | 1.08 | 0.914 | 0.828 | 0.741 | 0.865 | 0.505 | 0.555 | 0.587 | 0.533 | 0.47
7 | NCI-H1437 | 1.13 | 1.07 | 1.09 | 0.903 | 0.882 | 0.949 | 0.611 | 0.516 | 0.852 | 0.938 | 0.914 | 0.997 | 0.932 | 0.912 | 0.68 | 0.566 | 0.408 | 0.425 | 0.396 | 0.349
8 | NCI-H1651 | 0.445 | 0.423 | 0.444 | 0.263 | 0.519 | 0.551 | 0.538 | 0.344 | 0.878 | 0.875 | 0.892 | 0.884 | 0.969 | 0.906 | 0.765 | 0.516 | 0.623 | 0.667 | 0.665 | 0.59
9 | NCI-H1666 | 0.814 | 0.763 | 0.804 | 0.532 | 1.09 | 1.03 | 0.916 | 0.867 | 0.965 | 1.12 | 0.789 | 0.892 | 0.982 | 0.989 | 0.748 | 0.428 | 0.636 | 0.631 | 0.647 | 0.594
10 | NCI-H1734 | 0.559 | 0.537 | 0.357 | 0.192 | 0.878 | 0.779 | 0.482 | 0.375 | 0.772 | 0.725 | 0.468 | 0.521 | 0.709 | 0.588 | 0.546 | 0.406 | 0.28 | 0.244 | 0.261 | 0.252
11 | NCI-H1755 | 0.452 | 0.387 | 0.354 | 0.298 | 0.795 | 0.812 | 0.642 | 0.354 | 0.875 | 0.836 | 0.798 | 0.727 | 0.924 | 0.939 | 0.892 | 0.506 | 0.647 | 0.549 | 0.582 | 0.513
12 | NCI-H1915 | 0.681 | 0.716 | 0.579 | 0.525 | 0.537 | 0.521 | 0.536 | 0.403 | 0.911 | 0.923 | 0.874 | 0.905 | 1.08 | 1.11 | 0.998 | 1.07 | 0.486 | 0.431 | 0.432 | 0.394
13 | NCI-H1944 | 0.555 | 0.477 | 0.319 | 0.236 | 0.61 | 0.494 | 0.375 | 0.201 | 1.16 | 1.16 | 1.02 | 1.07 | 0.817 | 0.776 | 0.732 | 0.472 | 0.249 | 0.244 | 0.251 | 0.24
14 | NCI-H1975 | 0.816 | 0.62 | 0.466 | 0.225 | 0.708 | 0.665 | 0.386 | 0.204 | 0.96 | 0.866 | 0.855 | 0.894 | 0.69 | 0.564 | 0.41 | 0.227 | 0.798 | 0.66 | 0.573 | 0.535
15 | NCI-H1993 | 0.79 | 0.722 | 0.459 | 0.442 | 0.713 | 0.639 | 0.494 | 0.436 | 0.842 | 0.86 | 0.729 | 0.68 | 0.656 | 0.712 | 0.663 | 0.625 | 0.611 | 0.542 | 0.541 | 0.525
16 | NCI-H2085 | 0.963 | 1.06 | 0.354 | 0.287 | 0.792 | 0.832 | 0.498 | 0.319 | 0.887 | 0.888 | 0.876 | 0.724 | 1.01 | 0.959 | 0.74 | 0.419 | 0.781 | 0.793 | 0.786 | 0.716
